{"source": "paper PMC9305971", "about": "“Development of [^18F]AmBF3 Tetrazine for Radiolabeling of Peptides: Preclinical Evaluation and PET Imaging of [^18F]AmBF3-PEG7-Tyr^3-Octreotide in an AR42J Pancreatic Carcinoma Model” (Bioconjugate Chemistry, 2022)", "key": {"[1]": {"assay": "Enzymatic stability in 50% human plasma-0.01 M PBS", "format": "in vitro ADME", "conditions": "50% (v/v) human plasma-0.01 M PBS, radio-HPLC", "protocol": "Lipophilicity was determined with the shake-flask method as a distribution coefficient between 0.01 M PBS and octanol. Purified radiotracer [^18F]6 (10 μL, ∼200 kBq, 1.5 nmol), [^18F]14 (20 μL, ∼260 kBq, 125 pmol), or [^18F]15 (20 μL, 144 kBq, 67 pmol) in a polypropylene tube containing 1500–2000 μL of each in a 1:1 mixture (1-octanol, 0.02 M PBS, pH 7.4) was shaken mechanically (500 rpm, 10 min) and centrifuged (1000g, 5 min), and samples from each layer (400 μL, n = 4) were measured with a γ-counter. The log D7.4 was calculated as a distribution between the two layers at pH 7.4. [^18F]6 (10 MBq, 40 nmol) diluted with 0.01 M PBS at pH 7.4 (≤1% ethanol, 5300 μL) was incubated for 180 min. At selected time points (5, 30, 60, 90, 120, 150, and 180 min), a sample (100 μL) was injected to radio-HPLC. [^18F]14 and [^18F]15 (29 MBq, 10 nmol) diluted in 2000 μL of 0.01 M PBS (≤1% ethanol) were left to incubate. A sample of [^18F]14 (100 μL) after 9 hours and [^18F]15 at selected time points between 30 and 335 min were injected into HPLC (method A). [^18F]15 (0.6 MBq, 0.134 nmol, 200 μL) formulated in ≤5% EtOH-1 × PBS was added and incubated in 2000 μL of PBS-50% human plasma at 37 °C. A 100 μL sample (at 60, 120, 180, and 240 min, n = 2) was diluted with 200 μL of cold acetonitrile and centrifuged (10,000g, 5 min). […]"}, "[2]": {"test_system": "SSTR2-expressing rat pancreatic adenocarcinoma AR42J cells", "assay": "Cell uptake assay", "format": "cell-based", "conditions": "120 min", "protocol": "AR42J cells were grown to >90% confluence. One million cells/well were seeded overnight on 6-well plates. The growth media was removed, and the reaction media (1 mL) containing [^18F]14 (11 kBq, 10 pmol per well) or [^18F]15 (97 kBq, 40 pmol per well) was added. Additionally, cells were coincubated with 2.4 nmol per well of nonmodified octreotide for blocking of radiotracer uptake. Radioactivity in the free, membrane-bound, and internalized fractions was determined at designated time points (15, 30, 60, and 120 min) by treating the cells in a sequence of (1) ice-cold 0.01 M PBS, (2) glycine buffer, and (3) 1 M NaOH, respectively. The fractions were collected and measured with a γ-counter. The detailed protocol is given in the Supporting Information. […]\nwhere Acoct=radioactivity concentration of octanol and AcPBS=radioactivity concentration of PBS. The datapoints were presented as mean ± standard deviation.\nAR42J cell-uptake assay and mouse tumor model. Rat pancreatic tumor cell line AR42J that expresses SSTR2, was cultured at 37 °C in 95% relative humidity incubator containing 5% CO2. Cells grown to >90% confluence were used for either in vitro or in vivo experiments.\nOne million cells/well were seeded overnight on 6-well plates. The growth media was removed and the medium (1 mL/well) containing [18F]14 (11 kBq, 10 pmol per well) or [18F]15 (97 kBq, 40 pmol per well) was added. For studying the specificity of the cell -uptake, a set of cells were co-incubated in the presence of 2.4 nmol per well of non -modified octreotide representative of blocking conditions (total volume ~1 mL). For determining the amount of the radiotracer in the free fraction, at the designated time-points (15, 30, 60 and 120 min) the incubated media were removed, collected to a 5 mL scintillation tube, cells were washed with 1 mL of cold 0.01 M PBS (1×PBS) and again the supernatant collected into the same scintillation tube. Membrane-bound fraction; ice-cold glycine buffer (1 mL) was added on the cells, incubated for 5 minutes on ice, supernatant removed (procedure repeated once more) and the cells washed with ice -cold 1×PBS, and all washing solutions were collected to the same scintillation tube. Internalized fraction; 1 M NaOH (1 mL) was added on the cells and left incubating at an ambient temperature for 10 min. The supernatant was removed, the wells were washed 2 × 1 mL of cold 0.01 M PBS, and the supernatants collected to the same microtube. The collected samples were measured with a gamma counter for measuring the counts per minute (CPM) of each fraction (n = 3). The internalization is presented in percent (%) normalized to the total radioactivity in all three"}, "[3]": {"assay": "Ex vivo biodistribution of [18F]14 and [18F]15", "format": "in vivo, Rj:NMRI-Foxn1^nu/nu mice", "conditions": "mouse, iv, 0.2 nmol; for tissue uptake at 1 h / tissue uptake at 2 h: i.v.; for tissue uptake at 2 h: 120 min post injection", "protocol": "(§1) [^18F]14 and [^18F]15 in ≤4% ethanol–0.01 M PBS were administered intravenously (1.2 ± 0.0 and 2.0 ± 0.1 MBq, respectively, 0.2 nmol, 150 μL) to AR42J tumor-bearing Rj:NMRI-Foxn1^nu/nu mice. At predetermined time points (t = 30, 60, 120, and 240 min), animals were euthanized with CO2 asphyxiation and cervical dislocation, and then the organs were harvested, washed with water, and blotted dry, following with weighing and γ counting from which the % ID/g in tissues was determined."}, "AR42J xenografts": {"test_system": "AR42J xenografts", "assay": "Ex vivo biodistribution of [18F]14 and [18F]15", "format": "in vivo, Rj:NMRI-Foxn1^nu/nu mice", "protocol": "as §1"}}, "note": "Like-named read-outs stand apart in the source and are kept apart here.", "data": [{"smiles": "C[C@@H](O)[C@@H]1NC(=O)[C@H](CCCCN)NC(=O)[C@@H](Cc2c[nH]c3ccccc23)NC(=O)[C@H](Cc2ccc(O)cc2)NC(=O)[C@@H](NC(=O)[C@@H](Cc2ccccc2)NC(=O)CCOCCOCCOCCOCCON=Cc2ccc(CNC(=O)OC3CCCc4cnnc(-c5ccc(CC(=O)NCC[N+](C)(C)C[B-](F)(F)F)cc5)c4CC3)cc2)CSSC[C@@H](C(=O)N[C@H](CO)[C@@H](C)O)NC1=O", "note": "(stereo partly shown) [[^18F]14]", "values": [{"measurement": "enzymatic stability (in words)", "setting": "[1]", "value": "a polar radiometabolite was detected"}, {"measurement": "cell uptake, baseline", "setting": "[2]; n = 3, % internalized", "value": "1.0 ± 0.2", "unit": "%"}, {"measurement": "cell uptake, blocking", "setting": "[2]; n = 3, coincubation with excess octreotide", "value": "0.5 ± 0.1", "unit": "%"}, {"measurement": "tissue to tissue ratio at 1 h", "setting": "[3]; Rj:NMRI-Foxn1^nu/nu, tumor (AR42J xenograft) / blood, total radioactivity, 60 min post injection, baseline, read-out: T/blood ratio", "value": 0.3}, {"measurement": "tissue uptake at 1 h", "setting": "[3]; 60 min post injection, baseline, read-out: blood", "value": "10.2 ± 2.3", "unit": "%ID/g"}, {"measurement": "tissue uptake at 1 h", "setting": "[3]; 60 min post injection, baseline, read-out: brain", "value": "0.3 ± 0.1", "unit": "%ID/g"}, {"measurement": "tissue uptake at 1 h", "setting": "[3]; 60 min post injection, baseline, read-out: gallbladder", "value": "17.8 ± 5.2", "unit": "%ID/g"}, {"measurement": "tissue uptake at 1 h", "setting": "[3]; 60 min post injection, baseline, read-out: heart", "value": "2.4 ± 0.7", "unit": "%ID/g"}, {"measurement": "tissue uptake at 1 h", "setting": "[3]; 60 min post injection, baseline, read-out: kidney", "value": "14.3 ± 4.5", "unit": "%ID/g"}, {"measurement": "tissue uptake at 1 h", "setting": "[3]; 60 min post injection, baseline, read-out: liver", "value": "30 ± 9.4", "unit": "%ID/g"}, {"measurement": "tissue uptake at 1 h", "setting": "[3]; 60 min post injection, baseline, read-out: lung", "value": "6.2 ± 2.4", "unit": "%ID/g"}, {"measurement": "tissue uptake at 1 h", "setting": "[3]; 60 min post injection, baseline, read-out: muscle", "value": "0.6 ± 0.2", "unit": "%ID/g"}, {"measurement": "tissue uptake at 1 h", "setting": "[3]; 60 min post injection, baseline, read-out: pancreas", "value": "1.1 ± 0.2", "unit": "%ID/g"}, {"measurement": "tissue uptake at 1 h", "setting": "[3]; 60 min post injection, baseline, read-out: skin", "value": "2.1 ± 0.9", "unit": "%ID/g"}, {"measurement": "tissue uptake at 1 h", "setting": "[3]; 60 min post injection, baseline, read-out: spleen", "value": "1.2 ± 0.5", "unit": "%ID/g"}, {"measurement": "tissue uptake at 1 h", "setting": "[3]; 60 min post injection, baseline, read-out: urine", "value": "~85", "unit": "%ID/g"}, {"measurement": "tissue uptake at 1 h", "setting": "[3]; 60 min post injection, blocked with octreotide, read-out: blood", "value": "7.4 ± 1.5", "unit": "%ID/g"}, {"measurement": "tissue uptake at 1 h", "setting": "[3]; 60 min post injection, blocked with octreotide, read-out: brain", "value": "0.3 ± 0.1", "unit": "%ID/g"}, {"measurement": "tissue uptake at 1 h", "setting": "[3]; 60 min post injection, blocked with octreotide, read-out: gallbladder", "value": "10.7 ± 6.3", "unit": "%ID/g"}, {"measurement": "tissue uptake at 1 h", "setting": "[3]; 60 min post injection, blocked with octreotide, read-out: heart", "value": "1.9 ± 0.4", "unit": "%ID/g"}, {"measurement": "tissue uptake at 1 h", "setting": "[3]; 60 min post injection, blocked with octreotide, read-out: kidney", "value": "11.4 ± 3.7", "unit": "%ID/g"}, {"measurement": "tissue uptake at 1 h", "setting": "[3]; 60 min post injection, blocked with octreotide, read-out: liver", "value": "26.2 ± 15.8", "unit": "%ID/g"}, {"measurement": "tissue uptake at 1 h", "setting": "[3]; 60 min post injection, blocked with octreotide, read-out: lung", "value": "5.5 ± 2.7", "unit": "%ID/g"}, {"measurement": "tissue uptake at 1 h", "setting": "[3]; 60 min post injection, blocked with octreotide, read-out: muscle", "value": "0.5 ± 0.1", "unit": "%ID/g"}, {"measurement": "tissue uptake at 1 h", "setting": "[3]; 60 min post injection, blocked with octreotide, read-out: pancreas", "value": "0.8 ± 0.5", "unit": "%ID/g"}, {"measurement": "tissue uptake at 1 h", "setting": "[3]; 60 min post injection, blocked with octreotide, read-out: skin", "value": "1.6 ± 0.4", "unit": "%ID/g"}, {"measurement": "tissue uptake at 1 h", "setting": "[3]; 60 min post injection, blocked with octreotide, read-out: spleen", "value": "0.9 ± 0.1", "unit": "%ID/g"}, {"measurement": "tissue uptake at 1 h", "setting": "[3]; 60 min post injection, blocked with octreotide, read-out: urine", "value": "41.9 ± 15.7", "unit": "%ID/g"}, {"measurement": "tissue uptake at 1 h", "setting": "[3]; large intestine with contents, 60 min post injection, baseline, read-out: L. I. (+cont.), large intestine", "value": "1.1 ± 1.1", "unit": "%ID/g"}, {"measurement": "tissue uptake at 1 h", "setting": "[3]; large intestine with contents, 60 min post injection, blocked with octreotide, read-out: L. I. (+cont.), large intestine", "value": "0.7 ± 0.3", "unit": "%ID/g"}, {"measurement": "tissue uptake at 1 h", "setting": "[3]; occipital bone, 60 min post injection, blocked with octreotide, read-out: bone, occipital", "value": "1.1 ± 0.5", "unit": "%ID/g"}, {"measurement": "tissue uptake at 2 h", "setting": "[3]; occipital bone, read-out: bone, occipital", "value": "1.7 ± 0.1", "unit": "%ID/g"}, {"measurement": "tissue uptake at 1 h", "setting": "[3]; small intestine with contents, 60 min post injection, baseline, read-out: S. I. (+cont.), small intestines", "value": "2.6 ± 0.8", "unit": "%ID/g"}, {"measurement": "tissue uptake at 1 h", "setting": "[3]; small intestine with contents, 60 min post injection, blocked with octreotide, read-out: S. I. (+cont.), small intestines", "value": "1.9 ± 0.4", "unit": "%ID/g"}, {"measurement": "tissue uptake at 1 h", "setting": "[3]; stomach with contents, 60 min post injection, baseline, read-out: stomach (+cont.)", "value": "0.6 ± 0.2", "unit": "%ID/g"}, {"measurement": "tissue uptake at 1 h", "setting": "[3]; stomach with contents, 60 min post injection, blocked with octreotide, read-out: stomach (+cont.)", "value": "0.6 ± 0.2", "unit": "%ID/g"}, {"measurement": "tissue uptake at 1 h", "setting": "[3]; tibia bone, 60 min post injection, baseline, read-out: bone, tibia", "value": "1.3 ± 0.6", "unit": "%ID/g"}, {"measurement": "tissue uptake at 1 h", "setting": "[3]; tibia bone, 60 min post injection, blocked with octreotide, read-out: bone, tibia", "value": "1 ± 0.6", "unit": "%ID/g"}, {"measurement": "tissue uptake at 2 h", "setting": "[3]; tibia bone, read-out: bone, tibia", "value": "2.9 ± 1.4", "unit": "%ID/g"}, {"measurement": "tissue uptake at 1 h", "setting": "[3]; tumor, AR42J xenograft, 60 min post injection, baseline, read-out: tumor uptake", "value": "3.1 ± 0.7", "unit": "%ID/g"}, {"measurement": "tissue uptake at 1 h", "setting": "[3]; tumor, AR42J xenograft, 60 min post injection, blocked with octreotide, read-out: tumor uptake", "value": "2.2 ± 0.6", "unit": "%ID/g"}, {"measurement": "urine", "setting": "AR42J xenografts; 60 min post injection, i.v., baseline", "value": "84.9 ± 58.6", "unit": "% ID/g"}, {"measurement": "defluorination in vivo (in words)", "setting": "AR42J xenografts; judged from bone uptake", "value": "A minor degree of defluorination could not be ruled out"}]}]}
